Results: patent publication US10793625B2, “Compositions and methods for treating or preventing osteoarthritis” (THE JOHNS HOPKINS UNIVERSITY, priority 2012, dated 2020)
Read-outs that look alike come from different tables or passages of the source.

Tests used:
9-month-old ACLT mice = experiment: ACLT or sham surgery in 9 month old mice treated with TβRI inhibitor; assay type: in vivo, mouse; settings: for articular cartilage degeneration / subchondral bone structure / architecture: 1 mg/kg daily for 1 month
Method: (FIG. 12A) Safranin O staining of tibia articular cartilage and subchondral bone of mice sacrificed at 0, 14, 30, and 60 days post sham or ACLT surgery and treated with either vehicle or TβRI inhibitor (SB505124-1 mg/kg) daily beginning 3 days post-surgery for 1 month. For those mice analyzed at earlier time points, the mice were treated until sacrificed. (FIG. 12B) 3D μCT images of subchondral bone of knee joints. The sham operated mice maintained articular cartilage and subchondral bone structure throughout the duration of the experiment. […] (FIG. 12C) OARSI score based on the histology analysis. Quantitative analysis of structural parameters by μCT analysis: (FIG. 12D) thickness of subchondral bone plate (SBP) and (FIG. 12E) trabecular pattern factor (Tb. Pf). […] Ve-Sham: vehicle treated in sham operated; In-Sham: TβRI inhibitor treat in sham operated; Ve-ACLT: vehicle treated in ACLT operated; In-ACLT: TβRI inhibitor treated in ACLT operated mice.
Histochemistry, Immunohistochemistry and Histomorphometry. […] Immunostaining was performed using standard protocol. […] We calculated OARSI scores as previously described.
Micro-Computed Tomography (μCT). […] Th: trabecular thickness, Tb. Sp: trabecular separation, SMI, Conn. Dn: connectivity density, and Tb.Pf: trabecular pattern factor.

[1] = test system: Dunkin Hartley guinea pig spontaneous osteoarthritis; experiment: Dunkin Hartley guinea pig spontaneous osteoarthritis, MRI of knee joints; assay type: in vivo; settings: injected for 3 months
Source text: (FIG. 16A) MRI scanning of knee joints of the guinea pig with different dose of TβRI inhibitor or vehicle treatment for 3 months. Red arrows pointing the bone marrow lesions in the subchondral bone of distal femur (upper row) or tibiae plateau (lower row). (FIG. 16B) Quantitative analysis of the bone marrow lesion intensity.

active TGF-β1 = settings: injection; cited from earlier work
[2] = test system: Nestin-Cre™ER::Rosa26-LacZ^fl/fl mice; experiment: β-gal and osteocalcin co-staining in subchondral bone of Nestin-CreER::Rosa26-LacZfl/fl ACLT mice; assay type: in vivo, mouse
Source text: We purchased Nestin-Cre™ER and (ROSA)26Sortm1Sor/J mice from the Jackson Laboratory. Floxed type II TGF-β receptor (TβRII^fl/fl) mice were obtained from Dr. Moses' lab. Nestin-Cre™ER mice were crossed with TβRII^fl/fl mice. The offspring were intercrossed to generate the following offspring: nestin-Cre™ER::TβRII^fl/fl, in which Cre was fused with a mutated estrogen receptor that could be activated by Tamoxifen. We determined the genotype of transgenic mice by PCR analyses of genomic DNA isolated from mouse tails. Genotyping for the Cre transgene was performed by PCR with the primers Cre 5′ (5′-CAAATAGCCCTGGCAGAT-3′) and Cre 3′ (5′-[…]-3′). The loxP TβRII allele was identified with the primerslox1F (5′-[…]-3′) and lox1R (5′-[…]-3′). We generated Nestin-Cre™ER::Rosa26-LacZ^fl/fl mice by crossing nestin-Cre™ER mice with mice homozygous with a loxP-flanked DNA STOP sequence preventing expression of the downstream lacZ gene. The offspring were then intercrossed to generate the following genotype: Nestin-Cre™ER::Rosa26-LacZ^fl/fl. We performed sham or ACLT operations on two month-old, male WT, Nestin-Cre™ER::TβRII^fl/fl and Nestin-Cre™ER::Rosa26-lacZ^fl/fl male mice. […]
Histochemistry, Immunohistochemistry and Histomorphometry. […] We calculated OARSI scores as previously described.

MSCs = experiment: Western blot of Smad phosphorylation in cultured MSCs treated with recombinant hTGF-β1; assay type: cell-based, mouse
Method: Cell Culture. We obtained green fluorescent protein (GFP)-labeled mouse adult MSCs from the Texas A&M Health Science Center College of Medicine Institute (College Station). We maintained cells (Passage 3-5) Iscove's modified Dulbecco's medium (Invitrogen) supplemented with 10% fetal calf serum (Atlanta Biologicals), 10% horse serum (Thermo Scientific), and (% penicillin-streptomycin (Mediatech). We cultured MSCs in 6-well plates at a density of 1.8×10^5 cells per well, then starved them for 6 h followed by TGF-β1 (R&D Systems) and TβRI inhibitor (SB-505124) (Sigma-Aldrich) treatment as indicated.
ELISA and Western Blot, We determined the concentration of active TGF-β1 in the conditioned media by the ELISA Development kit (R&D Systems) according to the manufacturer's instructions. Western blot analyses were conducted on the protein of lysates from in vitro cultured MSCs. The cell lysates were centrifuged and the supernatants were separated by SDS-PAGE and blotted on polyvinylidene fluoride membrane (Bio-Rad Laboratories). Following incubation in specific antibodies, we detected proteins using an enhanced chemiluminescence kit (Amersham Biosciences). […]

[3] = 9 month old ACLT mice, listed as WI inhibitor, 1 mg/kg

## Cc1cccc(-c2[nH]c(C(C)(C)C)nc2-c2ccc3c(c2)OCO3)n1 [TβRI inhibitor]
9-month-old ACLT mice; 9 month old ACLT mice, 1 mg/kg
  articular cartilage degeneration: attenuated the articular cartilage degeneration
  subchondral bone structure / architecture: improved subchondral bone architecture
9-month-old ACLT mice; [3]
  articular cartilage degeneration: attenuated
  subchondral bone structure / architecture: improved
9-month-old ACLT mice; 9 month old ACLT mice, 1 and 2 months post ACLT, relative to ACLT-Vehicle
  trabecular pattern factor (Tb. Pf), μCT: decreased the trabecular pattern factor
9-month-old ACLT mice; 9 month old ACLT mice, 1 month post-surgery, compared to sham-operated controls
  thickness of subchondral bone plate (SBP), μCT: remained normal
9-month-old ACLT mice; sham-operated 9 month old mice, 1 mg/kg
  effect on articular cartilage: did not have significant effect on articular cartilage
[1]
  subchondral bone marrow lesions in knee joints: significantly reduced
Active TGF-β1
  uncoupled bone formation induced by high concentrations of active TGF-β1: rescue uncoupled bone formation
[2]
  distribution of β-gal+ MSC lineage cells in subchondral bone: primarily distributed on bone surface
ACLT mice; 1 mg kg^−1
  subchondral bone tissue volume (TV), μCT: normalization of subchondral bone TV
  thickness of subchondral bone plate (SBP), μCT: maintenance of the thickness of SBP
  trabecular pattern factor (Tb. Pf), μCT: decrease in Tb. Pf
ACLT mice; 0.1 and 0.5 mg/kg, 2 months after ACLT
  degeneration of articular cartilage: nor prevent the degeneration of articular cartilage
ACLT mice; 1 month post ACLT
  contrast signal in MRI perfusion analysis: the increase was prevented
ACLT mice; 2 weeks post-surgery
  expression of ALK5 in subchondral bone: the increase was inhibited
  pSmad2/3+ cells in subchondral bone: the increase was prevented
ACLT mice; 2 weeks post-surgery, relative to sham
  expression level of ALK1 in subchondral bone: remained unchanged
ACLT mice; 2 weeks post-surgery, relative to sham controls
  number of pSmad1+ cells in subchondral bone: remained relatively stable
ACLT mice; 2.5 and 5 mg/kg daily i.p. for 30 days, ACLT mice
  subchondral bone structure: could rescue the bone structure
ACLT mice; 14 and 30 days, immunostaining
  co-localization of osterix+ osteoprogenitors and TRAP+ osteoclasts: co-localization of osterix and TRAP was seen
ACLT mice; 30 days post-surgery, immunostaining
  increase of nestin+ MSCs in subchondral bone marrow: prevented
ACLT mice; ACLT mice
  CD31+ endothelial progenitors in subchondral bone: reduced
ACLT mice; all doses, 30 and 60 days post ACLT
  bone volume/tissue volume (BV/TV), μCT: did not change BV/TV
ACLT mice; high doses 1, 2.5 and 5 mg/kg
  subchondral bone tissue volume (TV), μCT: inhibited the increase in TV
  trabecular pattern factor (Tb. Pf), μCT: decreased Tb. Pf
ACLT mice; higher concentrations, beginning at 1 mg kg^−1
  subchondral bone structure: improved subchondral bone structure
ACLT mice; micro-MRI, vs ACLT-vehicle treated mice
  bone marrow lesion in tibial subchondral bone: obviously smaller in size
ACLT mice; one month post ACLT, vs vehicle
  increased number of osterix+ osteoprogenitor clusters in bone marrow: attenuated
ACLT mice; two months post-surgery, Catwalk system
  gait analysis: disparity of maximum contact time (Maxcontactat %) of the two hind limbs: rescued
ACLT mice; vs vehicle treated ACLT mice
  OARSI score of articular cartilage: protective effect

## TGF-β1: recombinant hTGF-β1 (R&D Systems) used to treat cultured MSCs
MSCs
  dose giving maximal increase of phosphorylated Smad1/5/8: 5 ng/mL
MSCs; low concentrations
  phosphorylation of Smad2/3 and Smad1/5/8: stimulated phosphorylation
